# Experimental data from patent publication US20160297830A1, “NOVEL COMPOUNDS USEFUL FOR THE TREATMENT OF BACTERIAL INFECTIOUS DISEASES” (GALAPAGOS NV, priority 2013, published 2016).
# Like-named read-outs stand apart in the source and are kept apart here.
# What was measured:
# [1] = test system: H. influenza Hi3 ATCC 31517; assay: organism not typed; type: cell-based; details: read-out: MIC Hi3
# DNA III Polymerase E = DNA III Polymerase E (Escherichia coli, UniProt P10443); assay: In vitro activity against DNA III Polymerase E, E. coli; type: biochemical
# Sequence of DNA III Polymerase E (P10443 whole entry): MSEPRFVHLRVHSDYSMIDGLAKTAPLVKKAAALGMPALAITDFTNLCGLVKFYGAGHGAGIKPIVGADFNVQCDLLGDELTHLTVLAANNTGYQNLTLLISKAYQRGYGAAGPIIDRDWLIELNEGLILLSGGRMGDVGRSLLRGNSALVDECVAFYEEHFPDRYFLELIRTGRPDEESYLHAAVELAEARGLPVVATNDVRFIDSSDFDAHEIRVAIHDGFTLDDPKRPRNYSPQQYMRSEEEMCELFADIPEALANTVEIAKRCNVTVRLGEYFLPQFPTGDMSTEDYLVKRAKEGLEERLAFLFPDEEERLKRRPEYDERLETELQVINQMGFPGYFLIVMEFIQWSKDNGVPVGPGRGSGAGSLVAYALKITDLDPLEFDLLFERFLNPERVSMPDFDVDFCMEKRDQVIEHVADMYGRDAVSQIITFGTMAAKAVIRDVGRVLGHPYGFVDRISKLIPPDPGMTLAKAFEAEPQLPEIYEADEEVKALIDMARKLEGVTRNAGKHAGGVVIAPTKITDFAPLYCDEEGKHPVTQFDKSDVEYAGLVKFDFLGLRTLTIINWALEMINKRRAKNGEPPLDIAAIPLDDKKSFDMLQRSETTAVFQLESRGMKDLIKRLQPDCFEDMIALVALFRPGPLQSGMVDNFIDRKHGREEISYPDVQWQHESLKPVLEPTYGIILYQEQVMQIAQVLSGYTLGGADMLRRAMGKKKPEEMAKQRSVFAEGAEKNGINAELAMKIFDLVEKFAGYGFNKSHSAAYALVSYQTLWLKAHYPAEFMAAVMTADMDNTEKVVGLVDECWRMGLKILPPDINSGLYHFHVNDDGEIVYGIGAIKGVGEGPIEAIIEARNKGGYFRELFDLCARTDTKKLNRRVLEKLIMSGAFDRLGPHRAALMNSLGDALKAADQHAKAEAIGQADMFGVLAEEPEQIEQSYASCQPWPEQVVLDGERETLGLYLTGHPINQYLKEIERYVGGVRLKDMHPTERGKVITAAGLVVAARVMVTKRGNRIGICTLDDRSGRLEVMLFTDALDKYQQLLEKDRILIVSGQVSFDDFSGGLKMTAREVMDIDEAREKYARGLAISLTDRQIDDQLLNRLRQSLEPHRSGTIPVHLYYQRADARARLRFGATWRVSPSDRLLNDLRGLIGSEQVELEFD
# How it was run: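 Recombinant enzyme (0.47 μg/mL diluted stock) in 20 mM Tris pH7.5, 8 mM DTT, 10 mM MgOAc, 0.05% CHAPS met compound series from 100 μM top, 1/5 steps. Activated calf thymus DNA, dNTPs and [α-33P]-dTTP substrate were added, and incubation ran 120 min at 30° C. IC50 came from filter-captured incorporated radioactivity versus controls.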
# [2] = test system: H. influenza Hi106 ATCC 51907; assay: organism not typed; type: cell-based; details: read-out: MIC Hi106
# [3] = test system: H. influenza Hi47 clinical strain, Ampicillin Resistant; assay: organism not typed; type: cell-based; details: read-out: MIC Hi47
# [4] = test system: Methicillin Resistant S. aureus (MRSA); assay: Neutropenic mouse thigh infection model; details: Thigh Sa
# [5] = test system: E. coli Ec50 efflux pump KO; assay: microbe, parasite or virus in culture; type: cell-based; details: Escherichia coli, read-out: MIC Ec50 efflux pump KO
# [6] = test system: E. coli Ec113 efflux pump KO; assay: microbe, parasite or virus in culture; type: cell-based; details: Escherichia coli, read-out: MIC Ec113 efflux pump KO
# [7] = test system: H. influenza Hi10 clinical strain; assay: organism not typed; type: cell-based; details: read-out: MIC Hi10
# S. aureus Sa4 NCTC 6571 = assay: Antibacterial activity assay (MIC), S. aureus Sa4; type: cell-based; details: Staphylococcus aureus
# E. coli Ec1 ATCC 25922 = assay: Antibacterial activity assay (MIC), E. coli Ec1; type: cell-based; details: Escherichia coli
# [8] = target: DNA Polymerase IIIα (DnaE) from Staphylococcus aureus (Staphylococcus aureus, UniProt Q6GG04); assay: biochemical
# Sequence of DNA Polymerase IIIα (DnaE) from Staphylococcus aureus (Q6GG04 1-1022): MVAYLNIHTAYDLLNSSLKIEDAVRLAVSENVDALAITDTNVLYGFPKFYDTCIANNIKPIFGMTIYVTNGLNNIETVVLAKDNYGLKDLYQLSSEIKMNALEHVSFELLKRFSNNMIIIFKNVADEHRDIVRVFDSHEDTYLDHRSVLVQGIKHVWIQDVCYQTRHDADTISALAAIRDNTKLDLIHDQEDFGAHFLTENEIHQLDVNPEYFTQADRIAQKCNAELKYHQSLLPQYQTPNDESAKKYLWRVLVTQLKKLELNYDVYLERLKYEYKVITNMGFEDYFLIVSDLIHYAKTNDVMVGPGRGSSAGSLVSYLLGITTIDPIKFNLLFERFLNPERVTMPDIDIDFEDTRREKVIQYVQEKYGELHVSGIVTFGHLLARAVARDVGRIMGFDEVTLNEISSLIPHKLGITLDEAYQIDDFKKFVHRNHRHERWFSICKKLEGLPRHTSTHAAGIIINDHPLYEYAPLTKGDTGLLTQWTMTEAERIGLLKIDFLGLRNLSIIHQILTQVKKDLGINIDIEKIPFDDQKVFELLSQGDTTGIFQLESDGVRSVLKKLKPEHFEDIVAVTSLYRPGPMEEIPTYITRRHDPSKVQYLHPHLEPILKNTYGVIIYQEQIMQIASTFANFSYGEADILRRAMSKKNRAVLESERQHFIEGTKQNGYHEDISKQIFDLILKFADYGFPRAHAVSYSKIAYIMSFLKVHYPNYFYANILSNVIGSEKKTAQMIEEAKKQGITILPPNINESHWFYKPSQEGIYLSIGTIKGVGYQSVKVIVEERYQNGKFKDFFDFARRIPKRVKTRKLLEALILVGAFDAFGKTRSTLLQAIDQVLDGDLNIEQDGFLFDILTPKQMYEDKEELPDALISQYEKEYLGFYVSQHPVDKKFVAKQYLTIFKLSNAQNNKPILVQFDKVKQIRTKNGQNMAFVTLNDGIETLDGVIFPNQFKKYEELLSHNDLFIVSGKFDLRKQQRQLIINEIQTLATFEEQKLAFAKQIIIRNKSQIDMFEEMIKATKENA
# [9] = test system: S. aureus Sa2 clinical strain NCIMB 41953, MRSA; assay: microbe, parasite or virus in culture; type: cell-based; details: Staphylococcus aureus, read-out: MIC Sa2
# S. aureus Sa1 ATCC 13709 = assay: microbe, parasite or virus in culture; type: cell-based; details: Staphylococcus aureus
# [10] = test system: S. aureus Sa26 ATCC 25923; assay: Antibacterial activity assay (MIC), S. aureus Sa26; type: cell-based; details: Staphylococcus aureus
# [11] = test system: Methicillin Resistant S. aureus Sa2 (MRSA); assay: animal or person; type: in vivo
# [12] = test system: Methicillin Resistant S. aureus Sa2 (MRSA); type: in vivo; details: Groin Sa, sample time 31 h post infection
# [13] = Study 9, 50 mg/kg PO BID, sample time 24 h PI
# [14] = NCTC6571, S. aureus Sa4 NCTC 6571, sensitive strain, read-out: MIC Sa4
# [15] = ATCC25922, E. coli Ec1 ATCC 25922, sensitive strain, read-out: MIC Ec1
# [16] = ATCC13709, S. aureus Sa1 ATCC 13709, sensitive strain, Mueller-Hinton Broth, 37° C., read-out: MIC Sa1
# [17] = ATCC25923, read-out: MIC Sa26 + 10% SH, S. aureus Sa26 + 10% SH
# [18] = ATCC25923, read-out: MIC Sa26 + 50% SH, S. aureus Sa26 + 50% SH
# [19] = ATCC25923, S. aureus Sa26 ATCC 25923, sensitive strain, Mueller-Hinton Broth, 37° C., read-out: MIC Sa26
# [20] = Staphylococcus aureus, MRSA, in Mus musculus, po, 24 h, read-out: Log reduction vs. untreated, Study 3, 50 mg/kg PO BID, sample 24 h post infection, lung
# [21] = Study 3, 50 mg/kg PO BID, sample 24 h post infection, lung
# [22] = Study 3, 50 mg/kg SC BID, sample time 7 h PI
# [23] = Study 5, 5 mg/kg IP BID, sample time 24 h PI
# [24] = Study 5, 15 mg/kg IP BID, sample time 24 h PI
# [25] = Study 5, 50 mg/kg IP BID, sample time 24 h PI
# [26] = Study 5, 50 mg/kg SC BID, sample time 24 h PI
# [27] = Study 5, 200 mg/kg PO BID, sample time 24 h PI
# [28] = Study 6, 50 mg/kg PO BID, sample time 24 h PI
# [29] = Study 6, 100 mg/kg PO BID, sample time 24 h PI
# [30] = Study 1, 50 mg/kg SC BID, sample time 7 h PI
# [31] = Study 2, 50 mg/kg SC BID, sample time 7 h PI
# [32] = Study 4, 15 mg/kg SC BID, sample time 24 h PI
# [33] = Study 8, 50 mg/kg SC QD, sample time 48 h PI
smiles,measurement,setting,value
"COC[C@@H]1[C@@H](O)[C@@H]2[C@H]3C=C[C@@H]4[C@@H](COC)C(=O)O[C@H]([C@H](O)COC)[C@H](C)/C=C(\C)[C@@]24O[C@H]3[C@@H]1OC(=O)c1cc(F)c[nH]1 [Compound 19, 8-O-4-Fluoro-1H-pyrrole-2′-carbonylbranimycin]",MIC,[1],> 64 µg/mL
same,IC50,DNA III Polymerase E,1.68 to 16.8 µM
same,MIC,[2],> 64 µg/mL
same,MIC,[3],> 64 µg/mL
same,Active,[4]; [13],Y
same,Log reduction vs. untreated,[4]; [13],−3.28
same,MIC,[5],64 µg/mL
same,MIC,[6],0.5 µg/mL
same,MIC,[7],> 64 µg/mL
same,MIC,S. aureus Sa4 NCTC 6571; [14],0.25 µg/mL
same,MIC,E. coli Ec1 ATCC 25922; [15],> 64 µg/mL
same,IC50,[8],0.00168 to 1.68 µM
same,MIC,[9],0.5 µg/mL
same,MIC,S. aureus Sa1 ATCC 13709; [16],0.5 µg/mL
same,MIC,[10]; [17],0.5 µg/mL
same,MIC,[10]; [18],1 µg/mL
same,MIC,[10]; [19],0.5 µg/mL
same,log reduction at 50 mg/kg,[11]; [20],3.56
same,log reduction at 25 mg/kg,"[11]; Staphylococcus aureus, MRSA, in Mus musculus, po, 72 h, read-out: Log reduction vs. untreated, Study 6, 25 mg/kg PO QD, sample 72 h post infection, lung",3.65
same,Active,[11]; [21],Y
same,Active,"[11]; Study 6, 25 mg/kg PO QD, sample 72 h post infection, lung",Y
"COC[C@@H]1[C@@H](O)[C@@H]2[C@H]3C=C[C@@H]4[C@@H](COC)C(=O)O[C@H]([C@H](O)COC)[C@H](C)/C=C(\C)[C@@]24O[C@H]3[C@@H]1OC(=O)c1cc(Cl)c[nH]1 [Compound 28, 8-O-4-Chloro-1H-pyrrole-2′-carbonylbranimycin]",MIC,[1],> 64 µg/mL
same,IC50,DNA III Polymerase E,1.64 to 16.4 µM
same,MIC,[2],64 µg/mL
same,MIC,[3],64 µg/mL
same,MIC,[5],64 µg/mL
same,MIC,[6],1 µg/mL
same,MIC,[7],64 µg/mL
same,MIC,S. aureus Sa4 NCTC 6571; [14],4 µg/mL
same,MIC,E. coli Ec1 ATCC 25922; [15],> 64 µg/mL
same,IC50,[8],0.00164 to 1.64 µM
same,MIC,[9],4 µg/mL
same,MIC,S. aureus Sa1 ATCC 13709; [16],2 µg/mL
same,MIC,[10]; [17],4 µg/mL
same,MIC,[10]; [18],16 µg/mL
same,MIC,[10]; [19],4 µg/mL
same,log reduction at 50 mg/kg,[11]; [20],1.64
same,Active,[11]; [21],N
"C[C@H]1COc2c(N3CCN(C)CC3)c(F)cc3c(=O)c(C(=O)O)cn1c23 [Levofloxacin, reference compound]",log reduction at 50 mg/kg,"[11]; Staphylococcus aureus, MRSA, in Mus musculus, po, 24 h, read-out: Log reduction vs. untreated, Study 1, 50 mg/kg PO BID, sample 24 h post infection, lung",0.32
same,log reduction at 50 mg/kg,"[11]; Staphylococcus aureus, MRSA, in Mus musculus, po, 24 h, read-out: Log reduction vs. untreated, Study 2, 50 mg/kg PO BID, sample 24 h post infection, lung",0.55
same,log reduction at 50 mg/kg,[11]; [20],-1.17
same,Active,"[11]; Study 1, 50 mg/kg PO BID, sample 24 h post infection, lung",N
same,Active,"[11]; Study 2, 50 mg/kg PO BID, sample 24 h post infection, lung",N
same,Active,[11]; [21],N
same,Active,"[12]; Study 2, 50 mg/kg PO BID",N
same,Log reduction vs. untreated,"[12]; Study 2, 50 mg/kg PO BID",−1.00
"CO[C@H]1C[C@H]2C=C[C@H]3[C@H]4O[C@]2(/C(C)=C/[C@@H](C)[C@@H]([C@@H](C)O)OC1=O)[C@@H]3[C@H](O)[C@@H](C)[C@H]4OC(=O)c1ccc[nH]1 [Nargenicin A1, reference compound]",MIC,[1],64 µg/mL
same,IC50,"DNA III Polymerase E; DNA polymerase III, E. coli, read-out: IC50 semiquantitative scoring, E. coli",0.00194 to 1.94 µM
same,MIC,[2],32 µg/mL
same,MIC,[3],64 µg/mL
same,Active,[4]; [22],Y
same,Log reduction vs. untreated,[4]; [22],−4.52
same,Active,[4]; [23],N
same,Log reduction vs. untreated,[4]; [23],0.28
same,Active,[4]; [24],N
same,Log reduction vs. untreated,[4]; [24],−0.55
same,Active,[4]; [25],Y
same,Log reduction vs. untreated,[4]; [25],−5.40
same,Active,[4]; [26],Y
same,Log reduction vs. untreated,[4]; [26],−3.28
same,Active,[4]; [27],Y
same,Log reduction vs. untreated,[4]; [27],−4.47
same,Active,[4]; [28],Y
same,Log reduction vs. untreated,[4]; [28],−2.02
same,Active,[4]; [29],Y
same,Log reduction vs. untreated,[4]; [29],−4.06
same,MIC,[5],2 µg/mL
same,MIC,[6],≤ 0.06 µg/mL
same,MIC,[7],32 µg/mL
same,MIC,"S. aureus Sa4 NCTC 6571; NCTC6571, read-out: MIC Sa4",≤ 0.06 µg/mL
same,MIC,"E. coli Ec1 ATCC 25922; ATCC25922, read-out: MIC Ec1",> 64 µg/mL
same,IC50,[8],0.00194 to 1.94 µM
same,MIC,[9],0.125 µg/mL
same,MIC,"S. aureus Sa1 ATCC 13709; ATCC13709, read-out: MIC Sa1",0.125 µg/mL
same,MIC,"[10]; ATCC25923, read-out: MIC Sa26",0.25 µg/mL
same,MIC,"[10]; ATCC25923, read-out: MIC Sa26 + 10% SH",0.5 µg/mL
same,MIC,"[10]; ATCC25923, read-out: MIC Sa26 + 50% SH",0.5 µg/mL
same,log reduction at 12.5 mg/kg,"[11]; Staphylococcus aureus, MRSA, in Mus musculus, po, 24 h, read-out: Log reduction vs. untreated, Study 4, 12.5 mg/kg PO BID, sample 24 h post infection, lung",0.39
same,log reduction at 25 mg/kg,"[11]; Staphylococcus aureus, MRSA, in Mus musculus, po, 24 h, read-out: Log reduction vs. untreated, Study 4, 25 mg/kg PO BID, sample 24 h post infection, lung",2.17
same,log reduction at 50 mg/kg,"[11]; Staphylococcus aureus, MRSA, in Mus musculus, po, 24 h, read-out: Log reduction vs. untreated, Study 4, 50 mg/kg PO BID, sample 24 h post infection, lung",2.57
same,Active,"[11]; Study 4, 12.5 mg/kg PO BID, sample 24 h post infection, lung",N
same,Active,"[11]; Study 4, 25 mg/kg PO BID, sample 24 h post infection, lung",Y
same,Active,"[11]; Study 4, 50 mg/kg PO BID, sample 24 h post infection, lung",Y
same,Active,"[12]; Study 1, 50 mg/kg IP BID",Y
same,Log reduction vs. untreated,"[12]; Study 1, 50 mg/kg IP BID",−3.13
same,Active,"[12]; Study 1, 50 mg/kg PO BID",N
same,Log reduction vs. untreated,"[12]; Study 1, 50 mg/kg PO BID",−1.11
CN[C@H](CC(C)C)C(=O)N[C@H]1C(=O)N[C@@H](CC(N)=O)C(=O)N[C@H]2C(=O)N[C@H]3C(=O)N[C@H](C(=O)N[C@H](C(=O)O)c4cc(O)cc(O)c4-c4cc3ccc4O)[C@H](O)c3ccc(c(Cl)c3)Oc3cc2cc(c3O[C@@H]2O[C@H](CO)[C@@H](O)[C@H](O)[C@H]2O[C@H]2C[C@](C)(N)[C@H](O)[C@H](C)O2)Oc2ccc(cc2Cl)[C@H]1O [Vancomycin],Active,[4]; [30],Y
same,Log reduction vs. untreated,[4]; [30],−4.01
same,Active,[4]; [31],Y
same,Log reduction vs. untreated,[4]; [31],−2.57
same,Active,[4]; [22],Y
same,Log reduction vs. untreated,[4]; [22],−1.52
same,Active,[4]; [32],Y
same,Log reduction vs. untreated,[4]; [32],−3.96
same,Active,[4]; [26],Y
same,Log reduction vs. untreated,[4]; [26],−4.27
same,Active,[4]; [33],Y
same,Log reduction vs. untreated,[4]; [33],−3.2
same,log reduction at 50 mg/kg,"[11]; Staphylococcus aureus, MRSA, in Mus musculus, sc, 24 h, read-out: Log reduction vs. untreated",2
same,Active,"[11]; Study 1, 50 mg/kg SC BID, sample 24 h post infection, lung",Y
same,Active,"[12]; Study 1, 50 mg/kg SC BID",Y
same,Log reduction vs. untreated,"[12]; Study 1, 50 mg/kg SC BID",−3.59
